Experimental data reported in ChEMBL document CHEMBL3864145, “Synthesis and biological evaluation of crown ether acyl derivatives” (Bioorg Med Chem Lett, 2016).
Values after ≈ are worked out from the molar mass of the structure shown.

Legend:
[1] = Cytotoxicity against human WiDr cells assessed as growth inhibition after 48 hrs by SRB assay; format: functional
Candida albicans [2] = assay: Antifungal activity against Candida albicans ATCC 90028 at 50 uM after 48 hrs by UV/Vis spectrophotometer relative to control; format: functional; details: ATCC 90028, 48 h
[3] = Cytotoxicity against human HBL100 cells assessed as growth inhibition after 48 hrs by SRB assay; format: functional; details: HBL-100, 48 h
Escherichia coli = assay: Antibacterial activity against Escherichia coli ATCC 25922 at 50 uM after 24 hrs by UV/Vis spectrophotometer relative to control; format: functional; details: ATCC 25922, 24 h
[4] = Cytotoxicity against human HeLa cells assessed as growth inhibition after 48 hrs by SRB assay; format: functional
Enterococcus faecalis = assay: Antibacterial activity against Enterococcus faecalis ATCC 29212 at 50 uM after 24 hrs by UV/Vis spectrophotometer relative to control; format: functional; details: ATCC 29212, 24 h
[5] = Cytotoxicity against human SW1573 cells assessed as growth inhibition after 48 hrs by SRB assay; format: functional; details: SW1573, 48 h
Staphylococcus aureus [6] = assay: Antibacterial activity against Staphylococcus aureus ATCC 25923 at 50 uM after 24 hrs by UV/Vis spectrophotometer relative to control; format: functional; details: ATCC 25923, 24 h
[7] = Cytotoxicity against telomerase-immortalized human BJ cells assessed as growth inhibition after 48 hrs by SRB assay; format: toxicity, cell-based
Staphylococcus aureus [8] = assay: Antibacterial activity against Staphylococcus aureus ATCC 25923 by broth microdilution method; format: functional
Candida albicans [9] = assay: Antifungal activity against Candida albicans ATCC 90028 by broth microdilution method; format: functional
[10] = Ratio of MIC50 for Staphylococcus aureus ATCC 25923 to GI50 for human HeLa cells; format: functional
[11] = Ratio of MIC50 for Staphylococcus aureus ATCC 25923 to GI50 for human HBL100 cells; format: functional, HBL-100
[12] = Ratio of MIC50 for Staphylococcus aureus ATCC 25923 to GI50 for human WiDr cells; format: functional
[13] = Ratio of MIC50 for Staphylococcus aureus ATCC 25923 to GI50 for human SW1573 cells; format: functional

| MIC50 (Staphylococcus aureus [8]) | MIC90 (Staphylococcus aureus [8]) | MIC50 (Candida albicans [9]) [µg/mL] | MIC90 (Candida albicans [9]) | Compound | GI50 [1] [µM] | inhibition at 50 µM (Candida albicans [2]) [%] | GI50 [3] [µM] | inhibition at 50 µM (Escherichia coli) [%] | GI50 [4] [µM] | inhibition at 50 µM (Enterococcus faecalis) [%] | GI50 [5] [µM] | inhibition at 50 µM (Staphylococcus aureus [6]) [%] | GI50 at 48 h [7] [µM] | Ratio [10] | Ratio [11] | Ratio [12] | Ratio [13] |
| --- | --- | --- | --- | --- | --- | --- | --- | --- | --- | --- | --- | --- | --- | --- | --- | --- | --- |
|  |  |  |  | O=C(OCC1COCCOCCOCCOCCOCCO1)c1cccnc1 (stereo unspecified) | > 100 | 24 | > 100 | 6.2 | > 100 | 6.8 | > 100 | 0 |  |  |  |  |  |
| 6.8 µg/mL | 25 µM |  |  | O=C(OCC1COCCOCCOCCOCCOCCO1)c1cccc(-c2ccc(Br)cc2)c1 (stereo unspecified) | 6.2 | 1 | 6.4 | 6.5 | 7.8 | 0 | 4.4 | 98 | 8.2 |  |  |  |  |
| 7.2 µM | 8.3 µM | 20.1 (≈ 36.5 µM) | 42 µM | O=C(CCc1ccc2ccc3cccc4ccc1c2c34)OCC1COCCOCCOCCOCCOCCO1 (stereo unspecified) | 19 | 101 | 21 | 0 | 17 | 0 | 18 | 99 | 19 |  |  |  |  |
|  |  |  |  | CC(=O)OCC1COCCOCCOCCOCCOCCO1 (stereo unspecified) | > 100 |  | > 100 |  | > 100 |  | > 100 |  |  |  |  |  |  |
|  |  |  |  | O=C(CCCCC1CCCCC1)OCC1COCCOCCOCCOCCOCCO1 (stereo unspecified) | 33 | 0 | 72 | 0 | 71 | 0 | 51 | 61 |  |  |  |  |  |
|  |  |  | 36 µM | O=C(CCCCCCCCCCOc1ccccc1)OCC1COCCOCCOCCOCCOCCO1 (stereo unspecified) | 66 | 101 | 20 | 0 | 41 | 2.1 | 24 | 29 | 24 |  |  |  |  |
| 11.1 µg/mL | 50 µM |  |  | O=C(OCC1COCCOCCOCCOCCOCCO1)c1c2ccccc2cc2ccccc12 (stereo unspecified) | 5.6 | 4.3 | 5 | 7.8 | 3.7 | 0 | 3.8 | 98 | 5.4 | 4 | 4 | 4 | 4 |
|  |  |  |  | O=C(/C=C/c1ccccc1)OCC1COCCOCCOCCOCCOCCO1 (stereo unspecified) | > 100 | 36.7 | 57 | 5.9 | 48 | 3.3 | 48 | 3.4 |  |  |  |  |  |
|  |  |  |  | O=C(CCCCC1CCCCC1)OCC1COCCOCCOCCO1 (stereo unspecified) | > 100 | 0 | > 100 | 4.9 | > 100 | 0 | > 100 | 0 |  |  |  |  |  |
|  |  |  |  | CC1(C(=O)OCC2COCCOCCOCCOCCOCCO2)c2ccccc2-c2ccccc21 (stereo unspecified) | 12 | 0 | 11 | 0.1 | 12 | 0 | 8.8 | 0 | 18 |  |  |  |  |
|  |  |  |  | O=C(CCCCC1CCCCC1)OCC1COCCOCCOCCOCCO1 (stereo unspecified) | > 100 | 0 | > 100 | 3.1 | > 100 | 0 | > 100 | 0 |  |  |  |  |  |
|  |  |  |  | O=C(CCCCCc1ccccc1)OCC1COCCOCCOCCOCCOCCO1 (stereo unspecified) | > 100 | 11 | 64 | 5.8 | 79 | 0 | 78 | 0 |  |  |  |  |  |
|  |  |  |  | COc1ccc(/C=C/C(=O)OCC2COCCOCCOCCOCCOCCO2)cc1 (stereo unspecified) | 56 | 0 | 50 | 7.3 | 56 | 0 | 54 | 0 | > 100 |  |  |  |  |
|  |  |  |  | CC/C=C/CC(=O)OCC1COCCOCCOCCOCCOCCO1 (stereo unspecified) | > 100 | 9.4 | > 100 | 4.3 | > 100 | 4.7 | > 100 | 6.9 |  |  |  |  |  |
|  |  |  |  | O=C(CCCCc1ccccc1)OCC1COCCOCCOCCOCCOCCO1 (stereo unspecified) | > 100 | 5.5 | 69 | 5 | 52 | 0.3 | > 100 | 0 |  |  |  |  |  |
|  |  |  |  | CC(C)=CC1C(C(=O)OCC2COCCOCCOCCOCCOCCO2)C1(C)C (stereo unspecified) | 56 | 0 | 40 | 0 | 63 | 0 | 54 | 0 | > 100 |  |  |  |  |
|  |  |  |  | O=C(CCCc1cc2ccccc2[nH]1)OCC1COCCOCCOCCOCCOCCO1 (stereo unspecified) | > 100 |  | > 100 |  | > 100 |  | > 100 |  |  |  |  |  |  |
|  |  |  |  | O=C(Cc1cccc(OCc2ccccc2)c1)OCC1COCCOCCOCCOCCOCCO1 (stereo unspecified) | 24 | 0 | 29 | 3.6 | 35 | 0 | 36 | 0 | 22 |  |  |  |  |
|  |  |  |  | O=C(CCCCOc1ccccc1)OCC1COCCOCCOCCOCCOCCO1 (stereo unspecified) | > 100 | 1.6 | > 100 | 8.1 | > 100 | 3.5 | > 100 | 0 |  |  |  |  |  |
|  |  |  |  | COc1cc([C@@H]2c3cc4c(cc3[C@@H](O[C@@H]3O[C@@H]5CO[C@@H](C)O[C@H]5[C@H](O)[C@H]3O)[C@H]3COC(=O)[C@H]23)OCO4)cc(OC)c1O [ETOPOSIDE] | 23 |  | 1.4 |  | 3.3 |  | 15 |  |  |  |  |  |  |

| Compound | MIC50 (Staphylococcus aureus [8]) | MIC90 (Staphylococcus aureus [8]) | MIC50 (Candida albicans [9]) [µg/mL] | MIC90 (Candida albicans [9]) | GI50 [1] [µM] | inhibition at 50 µM (Candida albicans [2]) [%] | GI50 [3] [µM] | inhibition at 50 µM (Escherichia coli) [%] | GI50 [4] [µM] | inhibition at 50 µM (Enterococcus faecalis) [%] | GI50 [5] [µM] | inhibition at 50 µM (Staphylococcus aureus [6]) [%] | GI50 at 48 h [7] [µM] | Ratio [10] | Ratio [11] | Ratio [12] | Ratio [13] |
| --- | --- | --- | --- | --- | --- | --- | --- | --- | --- | --- | --- | --- | --- | --- | --- | --- | --- |
| C[C@@H]1[C@H](O)[C@@H](C)/C=C/C=C/C=C/C=C/C=C/C=C/C=C/[C@H](O[C@@H]2O[C@H](C)[C@@H](O)[C@H](N)[C@@H]2O)C[C@@H]2O[C@](O)(C[C@@H](O)C[C@@H](O)[C@H](O)CC[C@@H](O)C[C@@H](O)CC(=O)O[C@H]1C)C[C@H](O)[C@H]2C(=O)O [AMPHOTERICIN B] |  |  |  | 0.5 µg/mL |  |  |  |  |  |  |  |  |  |  |  |  |  |
| O=C(O)c1cn(C2CC2)c2cc(N3CCNCC3)c(F)cc2c1=O [CIPROFLOXACIN] |  | 0.5 µg/mL |  |  |  |  |  |  |  |  |  |  |  |  |  |  |  |
